Measurements as given in patent publication US10098902B2, “Arginase inhibitors as therapeutics” (Mars, Incorporated, priority 2010, dated 2018).
One block for each compound: values may come before it.

What was measured:
[1] = test system: spontaneously hypertensive animals; conditions: cited from earlier work
bacterial arginase = conditions: cited from earlier work
[2] = test system: central airways in the murine chronic model; conditions: murine chronic asthma model; cited from earlier work
[3] = test system: animals undergoing experimental autoimmune encephalomyelitis (EAE); conditions: mouse, in vivo; cited from earlier work
human arginase I (ARG I) = human arginase I (ARG I) (Homo sapiens (Human), UniProt P05089); test: Inhibition of arginase I, spectrophotometric urea assay at 530 nm; format: biochemical; conditions: potency rank 1-5; pH 7.4, 37° C., 60 minutes
Procedure: (§1) Inhibition of arginase I (ARG I) and arginase II (ARG II) by Formula I or Formula II compounds is followed spectrophotometrically at 530 nm. The compound to be tested was dissolved in DMSO at an initial concentration 50-fold greater than its final concentration in the cuvette. 10 μl of the stock solution was diluted in 90 μl of the assay buffer that comprises 0.1M sodium phosphate buffer containing 130 mM NaCl, pH 7.4, to which is added ovalbumin (OVA) at a concentration of 1 mg/ml. Solutions of arginase I and II were prepared in 100 mM sodium phosphate buffer, pH 7.4 containing 1 mg/ml of OVA to give an arginase stock solution at a final concentration of 100 ng/ml.
(§2) To each well of a 96-well microtiter plate was added 40 μl of enzyme, 10 μl of an inventive compound and 10 μl of enzyme substrate (L-arginine+manganese sulfate). For wells that were used as positive controls, only the enzyme and its substrate were added, while wells used as negative controls contained only manganese sulfate.
(§3) After incubating the microtiter plate at 37° C. for 60 minutes, 150 μl of a urea reagent obtained by combining equal proportions (1:1) of reagents A and B is added to each well of the microtiter plate to stop the reaction. The urea reagent is made just before use by combining Reagent A (10 mM o-phthaldialdehyde, and 0.4% polyoxyethylene (23) lauryl ether (w/v) in 1.8 M sulfuric acid) with Reagent B (1.3 mM primaquine diphosphate, 0.4% polyoxyethylene (23) lauryl ether (w/v), 130 mM boric acid in 3.6 mM sulfuric acid). After quenching the reaction mixture, the microtiter plate is allowed to stand for an additional 10 minutes at room temperature to allow the color to develop. The inhibition of arginase was computed by measuring the optical density (OD) of the reaction mixture at 530 nm and normalizing the OD value to percent inhibition observed in the control. The normalized OD is then used to generate a dose-response curve by plotting the normalized OD values against log [concentration] and using regression analysis to compute the IC50 values.

[4] = biological target: human arginase II (ARG II) (Homo sapiens (Human), UniProt P78540); test: Inhibition of arginase II, spectrophotometric urea assay at 530 nm; format: biochemical; conditions: potency rank 1-5; pH 7.4, 37° C., 60 minutes
Procedure: as §1, §2, §3

human arginase II (ARG II), sequence (P78540 23-354): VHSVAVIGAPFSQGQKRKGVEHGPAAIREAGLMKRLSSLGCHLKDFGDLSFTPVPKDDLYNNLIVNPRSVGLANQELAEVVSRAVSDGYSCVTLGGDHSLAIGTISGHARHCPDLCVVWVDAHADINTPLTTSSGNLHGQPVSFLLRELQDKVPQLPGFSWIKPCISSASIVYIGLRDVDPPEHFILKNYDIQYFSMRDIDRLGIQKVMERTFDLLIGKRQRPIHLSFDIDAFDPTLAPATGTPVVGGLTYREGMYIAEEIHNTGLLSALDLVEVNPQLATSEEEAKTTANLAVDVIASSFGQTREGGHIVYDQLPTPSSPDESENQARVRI
human arginase I (ARG I), sequence (P05089 whole entry): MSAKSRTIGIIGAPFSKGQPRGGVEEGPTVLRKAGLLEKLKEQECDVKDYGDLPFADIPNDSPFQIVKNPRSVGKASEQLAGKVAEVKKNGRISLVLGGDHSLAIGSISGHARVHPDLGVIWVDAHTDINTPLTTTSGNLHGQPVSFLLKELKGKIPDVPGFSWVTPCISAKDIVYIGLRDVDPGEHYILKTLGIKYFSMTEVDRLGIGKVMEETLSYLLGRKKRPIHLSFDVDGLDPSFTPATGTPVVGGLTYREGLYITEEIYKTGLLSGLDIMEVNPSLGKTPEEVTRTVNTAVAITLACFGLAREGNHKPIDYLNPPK

Structure (SMILES): N=C(NO)NCC[C@H](N)C(=O)O [nor-NOHA, N^ω-hydroxy-nor-L-arginine]
effect on blood pressure [1]: lowered blood pressure

Structure (SMILES): NC(=NCCC[C@H](N)C(=O)O)NO [NOHA]
CD3 expression on T-cells (bacterial arginase): reestablished CD3 expression on T-cells
production of NO by macrophages (bacterial arginase): enhanced production of NO by macrophages

Structure (SMILES): N[C@@H](CSCCB(O)O)C(=O)O [S-(2-boronoethyl)-L-cysteine]
methacholine induced responsiveness of the central airways [2]: attenuated

Structure (SMILES): NC(CCCCB(O)O)C(=O)O (stereo not drawn) [ABH, amino-6-boronohexanoic acid]
severity of EAE versus control animals [3]: much milder form of EAE

IC50 (human arginase I (ARG I)): 0.1 to 250 nM
IC50 [4]: 0.1 to 250 nM
Structure (SMILES): N[C@@]1(C(=O)O)CN(CCNCc2ccccc2)C[C@@H]1CCCB(O)O [Example 40, (3R,4S)-3-amino-1-(2-(benzylamino)ethyl)-4-(3-boronopropyl)pyrrolidine-3-carboxylic acid]

IC50 (human arginase I (ARG I)): 0.1 to 250 nM
IC50 [4]: 251 to 1000 nM
Structure (SMILES): CCN(CC)CCN1C[C@H](CCCB(O)O)[C@](N)(C(=O)O)C1 [Example 34, (3R,4S)-3-amino-4-(3-boronopropyl)-1-(2-(diethylamino)ethyl)pyrrolidine-3-carboxylic acid]
